Results from publication PMC8805257, “Molecular and functional characterization of a conserved odorant receptor from Aedes albopictus” (Parasites & Vectors, 2022).

How the values were obtained:
Type in all cases: cell-based
[1] = target: T1, AalbOr11 (odorant receptor 11) (Aedes albopictus, UniProt A0ABM1ZVX3); assay: two-electrode voltage clamp in Xenopus oocytes co-expressing AalbOr11/AalbOrco, concentration-response
T1 construct: with AalbOrco
T1 sequence (A0ABM1ZVX3 1-420): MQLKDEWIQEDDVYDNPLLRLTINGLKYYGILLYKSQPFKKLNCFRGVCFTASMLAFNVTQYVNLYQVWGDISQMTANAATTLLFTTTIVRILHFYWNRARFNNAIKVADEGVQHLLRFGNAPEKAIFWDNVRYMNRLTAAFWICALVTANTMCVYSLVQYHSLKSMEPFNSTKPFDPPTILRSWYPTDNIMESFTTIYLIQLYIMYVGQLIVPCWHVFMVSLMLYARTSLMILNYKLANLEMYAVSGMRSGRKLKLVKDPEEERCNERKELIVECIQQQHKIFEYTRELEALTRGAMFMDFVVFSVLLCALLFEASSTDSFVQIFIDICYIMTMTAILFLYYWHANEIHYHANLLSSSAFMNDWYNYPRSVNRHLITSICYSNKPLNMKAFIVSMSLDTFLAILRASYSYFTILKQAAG
T1 sequence (W8NXX6 1-479 partner): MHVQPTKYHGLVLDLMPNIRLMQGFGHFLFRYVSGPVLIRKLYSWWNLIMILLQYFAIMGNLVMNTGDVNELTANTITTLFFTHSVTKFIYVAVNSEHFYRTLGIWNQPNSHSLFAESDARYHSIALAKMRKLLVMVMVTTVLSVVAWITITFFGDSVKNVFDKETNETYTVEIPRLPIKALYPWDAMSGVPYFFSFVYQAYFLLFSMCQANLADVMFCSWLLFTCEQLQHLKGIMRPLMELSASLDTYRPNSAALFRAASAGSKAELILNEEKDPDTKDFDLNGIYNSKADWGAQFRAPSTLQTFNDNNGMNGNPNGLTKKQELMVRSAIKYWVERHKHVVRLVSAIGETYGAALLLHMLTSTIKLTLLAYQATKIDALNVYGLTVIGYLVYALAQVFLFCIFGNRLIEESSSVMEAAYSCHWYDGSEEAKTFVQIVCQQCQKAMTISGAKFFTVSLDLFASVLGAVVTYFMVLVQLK

[2] = target: T1, AalbOr11 (odorant receptor 11); assay: two-electrode voltage clamp in Xenopus oocytes; current […] nA at […]
[3] = target: T1, AalbOr11 (odorant receptor 11); assay: two-electrode voltage clamp in Xenopus oocytes co-expressing AalbOr11/AalbOrco, concentration-response; remark: listed apart in the source
[4] = target: T1, AalbOr11 (odorant receptor 11); assay: two-electrode voltage clamp in Xenopus oocytes, screen at […]

SMILES | two-electrode voltage clamp in Xenopus oocytes; current >300 nA at 10^-4 M [2] | further results
CC(=O)c1cccs1 [2-acetylthiophene] |  | two-electrode voltage clamp in Xenopus oocytes co-expressing AalbOr11/AalbOrco, [1]: indole was replaced with 2-acetylthiophene to conduct concentration gradient assay
CCc1ccccc1O [2-ethylphenol] | five aromatics 3-methylindole, 2-ethyltoluene, indole, acetophenone, and 2-ethylphenol | 
CCc1ccccc1C [2-ethyltoluene] |  | EC50 [3]: 62.2 µM
Cc1c[nH]c2ccccc12 [3-methylindole] | five aromatics 3-methylindole, 2-ethyltoluene, indole, acetophenone, and 2-ethylphenol | 
CC1(C)C(=O)[C@@]2(C)CC[C@@H]1C2 [(+)-fenchone] |  | EC50 [3]: 139 µM
CC1(C)C(=O)[C@]2(C)CC[C@H]1C2 [(−)-fenchone] | The seven strong ligands comprised two terpenes (+)-fenchone and (−)-fenchone | 
CC(=O)c1ccccc1 [acetophenone] | five aromatics 3-methylindole, 2-ethyltoluene, indole, acetophenone, and 2-ethylphenol | 
C=CCc1ccc(O)c(OC)c1 [eugenol] |  | two-electrode voltage clamp in Xenopus oocytes, screen at 10^-4 M [4]: except eugenol, which could activate AalbOr11 but could not activate AgOr11
c1ccc2[nH]ccc2c1 [indole] | five aromatics 3-methylindole, 2-ethyltoluene, indole, acetophenone, and 2-ethylphenol | 
COC(=O)c1ccccc1C [methyl-2-methylbenzoate] |  | two-electrode voltage clamp in Xenopus oocytes, screen at 10^-4 M [4]: AalbOr11 was sensitive to human odor, such as indole, 3-methylindole, and methyl-2-methylbenzoate
